≈ marks a conversion by molar mass, not a printed value.
Tests used:
mice = assay: intravenous toxicity in mice; type: in vivo; conditions: solution of 300 mg I/ml, injection rate 20 g 1/kg/min
Description: The intravenous toxicity was determined in mice, after administration of a solution of 300 mg I/ml at an injection rate of 20 g 1/kg/min.

physchem = conditions: water

CC(=O)Nc1c(I)c(C(=O)NCC(=O)N(CCO)CCO)c(I)c(C(=O)NCC(=O)N(CCO)CCO)c1I [The compound]
LD50 (mice): 15.4 g I/kg
solubility (physchem): ~3000 mg/mL (≈ 3370 mM)
